According to ChEMBL document CHEMBL6153150, “Design, Synthesis, and Biological Evaluation of Chiral-Proline Derivatives as Novel HSP90 Inhibitors” (ACS Med Chem Lett, 2025):
pIC50, pKd: −log10 of the molar value. Activity calls are given as the source filed them. The calls are words filed in the database; no cut-off is given here.

How the values were obtained:
Heat shock protein HSP90 [1] = target: T1, Heat shock protein HSP90 (Homo sapiens, UniProt P07900+P08238); experiment: Binding affinity to Hsp90 (unknown origin) assessed as dissociation constant incubated for 30 mins by fluorescence spectrophotometric analysis; format: protein assay
Heat shock protein HSP90 [2] = target: T1, Heat shock protein HSP90; experiment: Inhibition of Hsp90 (unknown origin) ATPase activity assessed as decrease in absorbance using PEP as substrate in presence of ATP and NADH by absorbance based assay; format: protein assay
Endoplasmin [3] = target: T2, Endoplasmin (Homo sapiens, UniProt P14625); experiment: Inhibition of GRP94 (unknown origin) incubated for 12 to 16 hrs by FP competition assay
HCT-116 = experiment: Antiproliferative activity against human HCT-116 cells assessed as cell viability inhibition rate incubated for 72 hr by MTT assay; format: functional, cell-based; conditions: HCT-116, 72 h
MCF7 = experiment: Antiproliferative activity against human MCF7 cells assessed as cell viability inhibition rate incubated for 72 hr by MTT assay; format: functional, cell-based; conditions: MCF7, 72 h
SK-BR-3 = experiment: Antiproliferative activity against human SK-BR-3 cells assessed as cell viability inhibition rate incubated for 72 hr by MTT assay; format: functional, cell-based; conditions: SK-BR-3, 72 h
K562 = experiment: Antiproliferative activity against human K562 cells assessed as cell viability inhibition rate incubated for 72 hr by MTT assay; format: functional, cell-based; conditions: K562, 72 h
A549 = experiment: Antiproliferative activity against human A549 cells assessed as cell viability inhibition rate incubated for 72 hr by MTT assay; format: functional, cell-based; conditions: A549, 72 h
[4] = target: T3, Heat shock protein HSP 90-alpha (Homo sapiens, UniProt P07900); experiment: Inhibition of HSP90alpha (unknown origin) incubated for 12 to 16 hrs by FP competition assay
[5] = Selectivity ratio of IC50 for inhibition of GRP94 (unknown origin) to IC50 for inhibition of HSP90alpha (unknown origin)
[6] = Tmax in rat plasma at 50 mg/kg, po and measured upto 24 hr by LC-MS/MS analysis; format: ADME, organism-based
[7] = Cmax in rat plasma at 50 mg/kg, po and measured upto 24 hr by LC-MS/MS analysis; format: ADME, organism-based
[8] = AUC in rat plasma at 50 mg/kg, po and measured upto 24 hr by LC-MS/MS analysis; format: ADME, organism-based
[9] = Half life in rat plasma at 50 mg/kg, po and measured upto 24 hr by LC-MS/MS analysis; format: ADME, organism-based
[10] = Clearance in rat plasma at 50 mg/kg, po and measured upto 24 hr by LC-MS/MS analysis; format: ADME, organism-based
[11] = Oral bioavailability in rat at 50 mg/kg and measured upto 24 hr by LC-MS/MS analysis; format: ADME, organism-based; conditions: in vivo
[12] = target: T3, Heat shock protein HSP 90-alpha; experiment: Binding affinity to Hsp90alpha (unknown origin) assessed as dissociation constant
Endoplasmin [13] = target: T2, Endoplasmin; experiment: Binding affinity to GRP94 (unknown origin) assessed as dissociation constant

T2 sequence (P14625 whole entry): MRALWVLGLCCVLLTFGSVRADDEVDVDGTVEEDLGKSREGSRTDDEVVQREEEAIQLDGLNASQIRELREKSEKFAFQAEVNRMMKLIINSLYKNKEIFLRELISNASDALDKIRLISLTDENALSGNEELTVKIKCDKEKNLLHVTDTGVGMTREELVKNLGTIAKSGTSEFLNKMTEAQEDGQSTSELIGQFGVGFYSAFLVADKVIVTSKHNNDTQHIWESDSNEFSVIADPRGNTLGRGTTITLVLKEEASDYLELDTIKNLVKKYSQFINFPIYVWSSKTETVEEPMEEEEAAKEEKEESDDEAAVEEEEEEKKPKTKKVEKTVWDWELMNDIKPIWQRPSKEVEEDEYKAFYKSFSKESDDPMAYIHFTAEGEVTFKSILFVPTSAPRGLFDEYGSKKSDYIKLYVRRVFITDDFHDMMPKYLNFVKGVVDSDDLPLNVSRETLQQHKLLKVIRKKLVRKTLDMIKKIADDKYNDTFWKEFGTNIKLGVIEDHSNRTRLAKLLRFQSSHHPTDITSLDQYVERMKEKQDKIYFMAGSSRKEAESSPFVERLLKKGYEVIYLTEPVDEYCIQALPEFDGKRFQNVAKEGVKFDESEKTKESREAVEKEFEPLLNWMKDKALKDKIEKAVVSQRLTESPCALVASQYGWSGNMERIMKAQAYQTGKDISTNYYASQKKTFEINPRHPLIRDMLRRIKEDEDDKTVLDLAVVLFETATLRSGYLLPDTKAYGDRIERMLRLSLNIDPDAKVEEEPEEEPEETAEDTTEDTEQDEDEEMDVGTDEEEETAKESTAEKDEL

SMILES | Kd (Heat shock protein HSP90 [1]) [nM] | pIC50 (HCT-116) | pIC50 (MCF7) | pIC50 (SK-BR-3) | pIC50 (K562) | pIC50 (A549) | other results
CCCCN(CCCC)C(=O)[C@H]1C[C@H](c2ccccc2)CN1C(=O)c1cc(C(C)C)c(O)cc1O |  |  |  |  |  |  | Activity (Heat shock protein HSP90 [1]): inactive; inhibition (Heat shock protein HSP90 [2]): inactive
O=C(c1ccccc1O)N1Cc2ccccc2C1 | 532 |  |  |  |  |  | IC50 (Heat shock protein HSP90 [2]): 6940 nM
CC(C)N(Cc1cccnc1)C(=O)[C@H]1CCCN1C(=O)c1cc(C2CC2)c(OP(=O)(O)O)cc1O | 136 |  |  |  |  |  | IC50 (Heat shock protein HSP90 [2]): 237 nM
CC(C)c1cc(C(=O)N2C[C@@H](c3ccccc3)C[C@@H]2C(=O)NCCc2ccccc2)c(O)cc1O | 32 | 6.57 | 7.27 | 6.43 | 6.21 | 7.35 | pIC50 (Endoplasmin [3]): 6.52; pIC50 [4]: 6.86; Ratio IC50 [5]: 2.22
CC(C)c1cc(C(=O)N2C[C@@H](c3ccccc3)C[C@@H]2C(=O)NCCCN2CCOCC2)c(O)cc1O | 87 | 6.69 | 7.21 | 6.68 | 6.36 | 7.55 | pIC50 (Endoplasmin [3]): 6.11; pIC50 [4]: 6.81; Ratio IC50 [5]: 5.02; Tmax [6]: 0.733 h; Cmax [7]: 65.7 µg/mL; AUC at 24 h [8]: 186 µg·h/mL; half-life [9]: 5.8 h; CL/F [10]: 1.46 mL/min/kg; bioavailability [11]: 5.5%
CC(C)c1cc(C(=O)N2Cc3ccc(CN4CCN(C)CC4)cc3C2)c(O)cc1O [ONALESPIB] | 27 | 6.99 | 7.28 | 6.71 | 6.33 | 6.88 | pIC50 (Endoplasmin [3]): 7.52; pKd [12]: 7.30; pKd (Endoplasmin [13]): 7.52; pIC50 [4]: 7.30; Ratio IC50 [5]: 0.6
CC(C)N(Cc1cccnc1)C(=O)[C@H]1CCCN1C(=O)c1cc(C2CC2)c(O)cc1O | 27 |  |  |  |  |  | IC50 (Heat shock protein HSP90 [2]): 310 nM
CC(C)c1cc(C(=O)N2C[C@@H](c3ccccc3)C[C@@H]2C(=O)NCC(=O)N2CCCCC2)c(O)cc1O |  |  |  |  |  |  | Activity (Heat shock protein HSP90 [1]): inactive; inhibition (Heat shock protein HSP90 [2]): inactive
CCN1CCN(C(=O)[C@H]2C[C@H](c3ccccc3)CN2C(=O)c2cc(C(C)C)c(O)cc2O)CC1 |  |  |  |  |  |  | Activity (Heat shock protein HSP90 [1]): inactive; inhibition (Heat shock protein HSP90 [2]): inactive
O=C(NCc1ccccc1)[C@H]1C[C@H](c2ccccc2)CN1C(=O)c1cc(C2CC2)c(O)cc1O | 67 | 6.34 | 7.20 | 6.51 | 6.35 | 7.38 | 
COCCN(CCOC)C(=O)[C@H]1C[C@H](c2ccccc2)CN1C(=O)c1cc(C(C)C)c(O)cc1O | 783 | 6.14 | 6.43 | 6.06 | 6.15 | 6.52 | 
O=C(NCc1ccccc1F)[C@H]1C[C@H](c2ccccc2)CN1C(=O)c1cc(C2CC2)c(O)cc1O | 168 | 6.54 | 7.07 | 6.51 | 6.39 | 7.54 | 
CCN1CCCC1CNC(=O)[C@H]1C[C@H](c2ccccc2)CN1C(=O)c1cc(C(C)C)c(O)cc1O (stereo partly specified) |  |  |  |  |  |  | Activity (Heat shock protein HSP90 [1]): inactive; inhibition (Heat shock protein HSP90 [2]): inactive
CC(C)c1cc(C(=O)N2C[C@@H](c3ccccc3)C[C@@H]2C(=O)NCc2ccccc2F)c(O)cc1O | 231 | 6.42 | 7.06 | 6.34 | 6.20 | 7.15 | 
O=C(NCCCN1CCOCC1)[C@H]1C[C@H](c2ccccc2)CN1C(=O)c1cc(C2CC2)c(O)cc1O | 68 | 6.73 | 7.14 | 6.98 | 6.39 | 7.51 | pIC50 (Endoplasmin [3]): 6.69; pIC50 [4]: 6.87; Ratio IC50 [5]: 1.49; Tmax [6]: 0.883 h; Cmax [7]: 76.5 µg/mL; AUC at 24 h [8]: 239 µg·h/mL; half-life [9]: 6.9 h; CL/F [10]: 1.75 mL/min/kg; bioavailability [11]: 7.1%
CC(C)NC(=O)Oc1ccc2c(c1)CN(C(=O)c1cc(C3CC3)c(O)cc1O)C2 | 20 |  |  |  |  |  | IC50 (Heat shock protein HSP90 [2]): 270 nM
CC(C)c1cc(C(=O)N2C[C@@H](c3ccccc3)C[C@@H]2C(=O)NC(C)C(C)C)c(O)cc1O (stereo partly specified) | 345 | 6.20 | 6.73 | 6.13 | 6.25 | 6.89 | 
